According to patent US20240309015A1, “Methods for the Treatment of Fibrotic Disease” (SHY Therapeutics, LLC, priority 2021, published 2024):

Legend:
Smad2/3 phosphorylation = assay: Phospho-Smad2/3 Inhibition Assay in PANC-1; format: cell-based; settings: Homo sapiens; 10 μM compound, 3 h; TGF-b1 stimulated PANC-1; western blot; read-out: % inh of Smad2/3 phosphorylation in PANC-1
Procedure: Cell lines: Human tumor-derived pancreatic cancer cell line Panc-1 and mouse muscle myoblast C2C12 were purchased from American Type Culture Collection and grown in complete DMEM-High Glucose, supplemented with penicillin (100 U/mL), streptomycin (100 μg/mL), and 10% heat-inactivated FBS at 37° C. in a humidified incubator with 5% CO2.
Method: Cells were plated at 350000 cells/well density in a 12-well plate, allowed 3 hours to adhere to the plate, then starved in the appropriate medium in the presence of 0.5% FBS overnight. The small molecules to be tested were added to the cells in the final concentration of 10 μM in the presence of 0.3% DMSO for 3 hours incubation at 37° C. For IC50 value determination, serial dilutions of compounds were added to cells under the same conditions. Next, Panc-1 cells were stimulated with 10 ng/ml TGF-b1 for 1 hour, and C2C12 cells were stimulated with 10 ng/ml TGF-b1 for 20 minutes (recombinant human TGF-b1, R&D Systems). After stimulation cells were lysed with lysis buffer containing 1% Triton X-100, EDTA, and Halt™ Protease & Phosphatase Inhibitor Cocktail (Thermo Scientific). Protein concentration was assessed by BCA protein assay (Thermo Scientific). Phosphorylation level of Smad2/Smad3 was determined by western blot.
Western blot protocol: Equal amounts of protein (15-50 μg) were separated by SDS-PAGE and transferred to nitrocellulose membranes (Invitrogen by Thermo Fisher Scientific). The membrane was stained with Ponceau S Stain (Boston BioProducts) to verify uniform protein loading. Membranes were blocked with 10% milk and phosphorylation levels of Smad2/Smad3 were assessed by incubating overnight at 4° C. with the following antibodies: Phospho-Smad2 (Ser465/467) and Phosph-Smad3 (Ser423/425), both from Cell Signaling Technology. Then the membranes were incubated with HRP-conjugated secondary antibody (Jackson Immunoresearch, West Grove, PA). Bands were incubated in Amersham ECL Prime Western Blotting Detection Reagent (GE Healthcare) and visualized using the ChemiDoc MP imaging system (Bio-Rad).

KRas wild type = assay: Ras GTP Binding Domain Inhibition Assay, KRas wild type; settings: at 20 μM; for KRas wild type + SOS: % inh.: with SOS; for KRas wild type: % inh.: without SOS
Procedure: (§1) A Ras Superfamily Activity Assay (as disclosed in International Application No. PCT/US2018/038613, filed Jun. 20, 2018, which is incorporated by reference in its entirety) was used as a specific assay to evaluate compounds against the following for the following Ras Superfamily proteins: KRas wild type, KRas Q61H mutant, KRas G12C mutant, KRas G12D mutant, Rac-1, and Rho-A.
(§2) Buffer-I: • 25 mM Tris-HCl, pH 7.4 • 27 mM KCl • 137 mM NaCl • 1 mM MgCl2 • 1 mM DTT
(§3) Buffer-IL: • 50 mM Tris-HCl, pH 7.0 • 1 mM MgCl2 • 1 mM DTT
(§4) The small GTPases proteins: KRas wild type. KRas Q61H mutant, KRas G12C mutant, KRas G12D mutants, Rac-1, and Rho-A were expressed as His-tagged proteins. In addition, the Guanosine nucleotide Exchange Factor (GEF) Sos protein (residues 556-1049) was expressed as a His-tagged protein. In cells, the guanine nucleotide exchange factor Sos protein promotes activation of Ras proteins by stimulating an exchange of GDP for GTP. The inclusion of Sos to the Ras GTP binding domain inhibition assay may be considered as an alternative representation of physiological cellular conditions for evaluating the inhibitory activity of some of the tested small molecules.
(§5) For the assay, all purified small GTPases proteins were diluted in Buffer-I or Buffer-II to a final concentration of 10-30 μg/mL. 200 μL of each diluted protein was added to a nickel-coated 96-well plate and incubated overnight at 4° C. Then the protein solution was discarded and 200 μL of Buffer-I or Buffer-II was added to each well in the presence of 1% DMSO. Compounds to be tested were added to the protein-coated wells at final concentration of 20 μM, and incubated for 3 hours at room temperature with and without 10-30 μg/mL of Sos added to the final hour of the incubation. When performing IC50 measurements a serial dilution of all tested concentrations was added. Then Cy3-GTP or Cy5-GTP was added to each well to a final concentration of 100 nM. The labeled GTP was incubated for 45 minutes at room temperature. Following GTP incubation, wells were washed 3× in Buffer-I or Buffer-II and 200 μL of Buffer-I or Buffer-II was added to each well. Following washes, the amount of bound labeled-GTP was measured using a SpectraMax M3 (Molecular Devices).

KRas G12D mutant = assay: Ras GTP Binding Domain Inhibition Assay, KRas G12D mutant; settings: at 20 μM; for KRas G12D mutant + SOS: % inh.: with SOS; for KRas G12D mutant: % inh.: without SOS
Procedure: as §1, §2, §3, §4, §5

KRas G12C mutant = assay: Ras GTP Binding Domain Inhibition Assay, KRas G12C mutant; settings: at 20 μM; for KRas G12C mutant + SOS: % inh.: with SOS; for KRas G12C mutant: % inh.: without SOS
Procedure: as §1, §2, §3, §4, §5

Rho-A = assay: Ras GTP Binding Domain Inhibition Assay, Rho-A; settings: at 20 μM; without SOS
Procedure: as §1, §2, §3, §4, §5

IL-6 = assay: Mouse IL6 Quantification Assay (LPS-stimulated RAW 264.7); format: cell-based; design: dose or concentration left out as unconfirmed; settings: RAW264.7, ELISA, read-out: IL-6: % inh.
TNFα = assay: Mouse TNF Alpha Quantification Assay (LPS-stimulated RAW 264.7); format: cell-based; design: dose or concentration left out as unconfirmed; settings: RAW264.7, ELISA, read-out: TNFα: % inh.

SMILES	KRas wild type + SOS: % inh. (KRas wild type)	KRas wild type: % inh. (KRas wild type)	KRas G12D mutant + SOS: % inh. (KRas G12D mutant; Table 7)	KRas G12D mutant + SOS: % inh. (KRas G12D mutant; Table 8)	KRas G12D mutant: % inh. (KRas G12D mutant; Table 7)	KRas G12D mutant: % inh. (KRas G12D mutant; Table 8)	KRas G12C mutant + SOS: % inh. (KRas G12C mutant)	KRas G12C mutant: % inh. (KRas G12C mutant)	Rho-A: % inh. (Rho-A)	inhibition at 10 µM (Smad2/3 phosphorylation)	inhibition (IL-6)	inhibition (TNFα)
COc1cc(-c2sc3nc(-c4nccn4C)nc(N[C@@H]4CC[C@H](OC)C4)c3c2-c2ccccc2)ccn1 (racemic) [Compound 44, rac-N-((1R,3S)-3-Methoxycyclopentyl)-6-(2-methoxypyridin-4-yl)-2-(1-methyl-1H-imidazol-2-yl)-5-phenylthieno[2,3-d]pyrimidin-4-amine]	D (D = 76-100% inhibition)	C (C = 46-75% inhibition)	C (C = 46-75% inhibition)	C (C = 46-75% inhibition)	D (D = 76-100% inhibition)	D (D = 76-100% inhibition)	D (D = 76-100% inhibition)	B (B = 26-45% inhibition)	0 (0 = 0% inhibition)	76 to 100%	–	–
COCC1(OC)CCN(c2nc(-c3nccn3C)nc3sc(-c4ccn(C(C)C)n4)c(C)c23)C1 (racemic) [Compound 27, rac-6-(1-Isopropyl-1H-pyrazol-3-yl)-4-(3-methoxy-3-(methoxymethyl)pyrrolidin-1-yl)-5-methyl-2-(1-methyl-1H-imidazol-2-yl)thieno[2,3-d]pyrimidine]	D (D = 76-100% inhibition)	D (D = 76-100% inhibition)	D (D = 76-100% inhibition)	D (D = 76-100% inhibition)	C (C = 46-75% inhibition)	C (C = 46-75% inhibition)	D (D = 76-100% inhibition)	D (D = 76-100% inhibition)	C (C = 46-75% inhibition)	–	76 to 100%	76 to 100%
COc1cccc(-c2sc3nc(-c4nccn4C)nc(N[C@@H]4CC[C@@H](OC)C4)c3c2C)c1F (racemic) [Compound 43, rac-6-(2-Fluoro-3-methoxyphenyl)-N-((1R,3R)-3-methoxycyclopentyl)-5-methyl-2-(1-methyl-1H-imidazol-2-yl)thieno[2,3-d]pyrimidin-4-amine]	D (D = 76-100% inhibition)	B (B = 26-45% inhibition)	D (D = 76-100% inhibition)	D (D = 76-100% inhibition)	A (A = 1-25% inhibition)	A (A = 1-25% inhibition)	D (D = 76-100% inhibition)	B (B = 26-45% inhibition)	B (B = 26-45% inhibition)	–	76 to 100%	26 to 45%
COC1CCCN(c2nc(-c3nccn3C)nc3sc(-c4ccn(C(C)C)n4)c(C)c23)C1 (racemic) [Compound 14, rac-6-(1-Isopropyl-1H-pyrazol-3-yl)-4-(3-methoxypiperidin-1-yl)-5-methyl-2-(1-methyl-1H-imidazol-2-yl)thieno[2,3-d]pyrimidine]	D (D = 76-100% inhibition)	0 (0 = 0% inhibition)	–	–	–	–	D (D = 76-100% inhibition)	B (B = 26-45% inhibition)	B (B = 26-45% inhibition)	46 to 75%	76 to 100%	26 to 45%

Continued, in another order:

KRas wild type + SOS: % inh. (KRas wild type)	KRas wild type: % inh. (KRas wild type)	KRas G12D mutant + SOS: % inh. (KRas G12D mutant; Table 7)	KRas G12D mutant + SOS: % inh. (KRas G12D mutant; Table 8)	KRas G12D mutant: % inh. (KRas G12D mutant; Table 7)	KRas G12D mutant: % inh. (KRas G12D mutant; Table 8)	KRas G12C mutant + SOS: % inh. (KRas G12C mutant)	KRas G12C mutant: % inh. (KRas G12C mutant)	Rho-A: % inh. (Rho-A)	SMILES	inhibition at 10 µM (Smad2/3 phosphorylation)	inhibition (IL-6)	inhibition (TNFα)
D (D = 76-100% inhibition)	C (C = 46-75% inhibition)	C (C = 46-75% inhibition)	C (C = 46-75% inhibition)	C (C = 46-75% inhibition)	C (C = 46-75% inhibition)	D (D = 76-100% inhibition)	B (B = 26-45% inhibition)	C (C = 46-75% inhibition)	COc1cc(-c2sc3nc(-c4nccn4C)nc(N[C@H]4C[C@H](OC)C4)c3c2-c2ccccc2)ccn1 [Compound 46, N-((1r,3r)-3-Methoxycyclobutyl)-6-(2-methoxypyridin-4-yl)-2-(1-methyl-1H-imidazol-2-yl)-5-phenylthieno[2,3-d]pyrimidin-4-amine]	76 to 100%	–	–
D (D = 76-100% inhibition)	D (D = 76-100% inhibition)	D (D = 76-100% inhibition)	D (D = 76-100% inhibition)	C (C = 46-75% inhibition)	C (C = 46-75% inhibition)	D (D = 76-100% inhibition)	C (C = 46-75% inhibition)	C (C = 46-75% inhibition)	COc1cc(-c2sc3nc(-c4nccn4C)nc(N[C@@H]4CC[C@@H](OC)C4)c3c2-c2ccccc2)ccn1 (racemic) [Compound 47, N-((1R,3R)-3-Methoxycyclopentyl)-6-(2-methoxypyridin-4-yl)-2-(1-methyl-1H-imidazol-2-yl)-5-phenylthieno[2,3-d]pyrimidin-4-amine]	76 to 100%	–	–
D (D = 76-100% inhibition)	C (C = 46-75% inhibition)	C (C = 46-75% inhibition)	C (C = 46-75% inhibition)	C (C = 46-75% inhibition)	C (C = 46-75% inhibition)	D (D = 76-100% inhibition)	B (B = 26-45% inhibition)	C (C = 46-75% inhibition)	COc1nccc(-c2sc3nc(-c4nccn4C)nc(N[C@H]4C[C@H](OC)C4)c3c2-c2ccccc2)c1F [Compound 45, 6-(3-Fluoro-2-methoxypyridin-4-yl)-N-((1r,3r)-3-methoxycyclobutyl)-2-(1-methyl-1H-imidazol-2-yl)-5-phenylthieno[2,3-d]pyrimidin-4-amine]	76 to 100%	–	–
